Where two headings read alike, the source gives them in different places.
How the values were obtained:
human RORγ = target: T1, human RORγ (Homo sapiens, UniProt P51449); assay: Luciferase reporter gene assay of inhibitory effect against RORγ transcriptional activity (GAL4-hRORγ plasmid in CHO cells); format: cell-based
T1 construct: human, NM_005060.3 and from Ser253 to Lys518; expressed in transfected cells; host or cells: CHO cells (transient co-transfection with pG5-Luc reporter)
T1 sequence (P51449 253-518): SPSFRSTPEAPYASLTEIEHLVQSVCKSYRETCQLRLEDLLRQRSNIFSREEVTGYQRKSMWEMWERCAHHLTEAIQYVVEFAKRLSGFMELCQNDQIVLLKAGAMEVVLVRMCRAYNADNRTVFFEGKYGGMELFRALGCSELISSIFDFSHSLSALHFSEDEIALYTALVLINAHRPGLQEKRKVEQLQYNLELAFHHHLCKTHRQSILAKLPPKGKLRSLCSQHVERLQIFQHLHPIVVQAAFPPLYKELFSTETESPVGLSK

mouse RORγ = target: T2, mouse RORγ (Mus musculus, UniProt P51450); assay: Luciferase reporter gene assay of inhibitory effect against RORγ transcriptional activity (GAL4-mRORγ plasmid in CHO cells); format: cell-based
T2 construct: mouse, NM_011281.2 and from Ile251 to Lys516; expressed in transfected cells; host or cells: CHO cells (transient co-transfection with pG5-Luc reporter)
T2 sequence (P51450 251-516): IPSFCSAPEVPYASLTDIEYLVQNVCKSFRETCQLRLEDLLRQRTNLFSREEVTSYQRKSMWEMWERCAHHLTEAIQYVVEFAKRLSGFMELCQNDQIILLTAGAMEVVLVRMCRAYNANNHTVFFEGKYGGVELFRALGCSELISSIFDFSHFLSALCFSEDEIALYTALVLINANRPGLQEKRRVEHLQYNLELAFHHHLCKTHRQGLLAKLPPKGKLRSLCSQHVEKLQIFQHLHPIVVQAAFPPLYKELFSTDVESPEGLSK
Method in brief: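 Readout is intracellular luciferase after 2-day compound exposure (8 concentrations, 0.1% DMSO) in CHO cells expressing GAL4 fused to mouse RORγ LBD residues Ile251–Lys516 plus pG5-Luc reporter. EC50 fitted from %-of-control; points showing resazurin-detected cytotoxicity dropped.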

Compound | EC50 (human RORγ; read-out: LUC EC50 (μM) hRORg) | EC50 (mouse RORγ; read-out: LUC EC50 (μM) mRORg) | further results
Cc1ccc(NC(=O)C[C@H](CCC(=O)O)c2noc(-c3cc(C(F)(F)C4(C)CC4)on3)c2C2CC2)c(Cl)c1 [Example E-51] | < 3 µM | < 3 µM | –
Cc1ccc(NC(=O)C[C@H](CCC(=O)O)c2onc(-c3cc(C(F)(F)C(C)(C)C)on3)c2C2CC2)c(Cl)c1 [Example E-52, Sodium (S)-5-(2-chloro-4-methyl-phenylcarbamoyl)-4-[4-cyclopropyl-5′-(1,1-difluoro-2,2-dimethylpropyl)-[3,3′]biisoxazolyl-5′-yl]pentanoate] | < 3 µM | < 3 µM | –
Cc1ccc(NC(=O)C[C@H](CC(=O)O)c2noc(-c3cc(C(F)(F)C(C)(C)C)on3)c2C2CC2)c(Cl)c1 [Example E-53, Sodium (R)-4-(2-chloro-4-methyl-phenylcarbamoyl)-3-[4′-cyclopropyl-5-(1,1-difluoro-2,2-dimethylpropyl)-[3,5′]biisoxazolyl-3′-yl]-butyrate] | < 3 µM | < 3 µM | –
Cc1ccc(NC(=O)C[C@H](CCC(=O)O)c2noc(-c3cc(C(C)(C)C(F)(F)F)on3)c2C2CC2)c(Cl)c1 [Example E-54] | < 3 µM | < 3 µM | –
CC(C)C(F)(F)c1cc(-c2onc([C@@H](CCC(=O)O)CC(=O)Nc3ccc(Cl)cc3F)c2C2CC2)no1 [Example E-55] | < 3 µM | < 3 µM | –
CC(C)(C)Cc1cc(-c2onc([C@@H](CCC(=O)O)CC(=O)Nc3ccc(Cl)cc3F)c2C2CC2)no1 [Example E-56] | < 3 µM | < 3 µM | –
CC(C)(C)Cc1cc(-c2onc([C@@H](CCC(=O)O)CC(=O)Nc3ccc(F)cc3Cl)c2C2CC2)no1 [Example E-57] | < 3 µM | < 3 µM | –
CC(C)(C)Cc1cc(-c2onc([C@@H](CCC(=O)O)CC(=O)Nc3ccc(Cl)cc3Cl)c2C2CC2)no1 [Example E-58, Sodium (S)-4-[4′-cyclopropyl-5-(2,2-dimethyl-propyl)-[3,5′]biisoxazolyl-3′-yl]-5-(2,4-dichloro-phenylcarbamoyl)-pentanoate] | < 3 µM | < 3 µM | –
O=C(O)CC[C@@H](CC(=O)Nc1ccc(Cl)cc1F)c1noc(-c2cc(C3CCCC3)on2)c1C1CC1 [Example E-59] | < 3 µM | < 3 µM | –
O=C(O)CC[C@@H](CC(=O)Nc1ccc(F)cc1Cl)c1noc(-c2cc(C3CCCC3)on2)c1C1CC1 [Example E-60] | < 3 µM | < 3 µM | –
CC(C)C(F)(F)c1cc(-c2onc([C@@H](CCC(=O)O)CC(=O)Nc3ccc(F)cc3Cl)c2C2CC2)no1 [Example E-61] | < 3 µM | < 3 µM | –
CC(C)(C)C(F)(F)c1cc(-c2onc([C@@H](CCC(=O)O)CC(=O)Nc3ccc(Cl)cc3F)c2C(F)F)no1 [Example E-62, Sodium (S)-5-(4-chloro-2-fluoro-phenylcarbamoyl)-4-[5-(1,1-difluoro-2,2-dimethylpropyl)-4′-difluoromethyl-[3,5′]biisoxazolyl-3′-yl]-pentanoate] | < 3 µM | < 3 µM | –
CC1(Cc2cc(-c3onc([C@@H](CCC(=O)O)CC(=O)Nc4ccc(F)cc4Cl)c3C3CC3)no2)CC1 [Example E-63] | < 3 µM | < 3 µM | –
CC1(Cc2cc(-c3onc([C@@H](CCC(=O)O)CC(=O)Nc4ccc(Cl)cc4F)c3C3CC3)no2)CC1 [Example E-64] | < 3 µM | < 3 µM | –
Cc1ccc(NC(=O)C[C@H](CCC(=O)O)c2noc(-c3cc(CC(C)(C)C)on3)c2C2CC2)c(F)c1 [Example E-65] | < 3 µM | < 3 µM | –
CC(F)(F)c1c([C@@H](CCC(=O)O)CC(=O)Nc2ccc(Cl)cc2F)noc1-c1cc(C(F)(F)C(C)(C)C)on1 [Example E-66] | < 3 µM | < 3 µM | –
CC1(C(F)(F)c2cc(-c3onc([C@@H](CCC(=O)O)CC(=O)Nc4ccc(Cl)cc4F)c3C3CC3)no2)CC1 [Example E-67] | < 3 µM | < 3 µM | –
CC(C)(C)c1cc(-c2onc([C@@H](CCC(=O)O)CC(=O)Nc3ccc(Cl)cc3F)c2C2CC2)no1 [Example E-69] | < 3 µM | < 3 µM | –
O=C(O)CC[C@@H](CC(=O)Nc1ccc(Cl)cc1Cl)c1noc(-c2cc(C3CCCC3)on2)c1C1CC1 [Example E-70] | < 3 µM | < 3 µM | –
CC1(c2cc(-c3onc([C@@H](CCC(=O)O)CC(=O)Nc4ccc(Cl)cc4F)c3C3CC3)no2)CCCC1 [Example E-71] | < 3 µM | < 3 µM | –

Compound | EC50 (human RORγ; read-out: LUC EC50 (μM) hRORg) | EC50 (mouse RORγ; read-out: LUC EC50 (μM) mRORg) | further results
CC1(c2cc(-c3onc([C@@H](CCC(=O)O)CC(=O)Nc4ccc(F)cc4Cl)c3C3CC3)no2)CCCC1 [Example E-72] | < 3 µM | < 3 µM | –
Cc1ccc(NC(=O)C[C@H](CCC(=O)O)c2noc(-c3cc(C(F)(F)C4CC4)on3)c2C2CC2)c(Cl)c1 [Example E-73] | < 3 µM | < 3 µM | –
CC(C)(C)Cc1cc(-c2noc([C@@H](CCC(=O)O)CC(=O)Nc3ccc(Cl)cc3Cl)c2C2CC2)no1 [Example E-74] | < 3 µM | < 3 µM | –
Cc1ccc(NC(=O)C[C@H](CCC(=O)O)c2onc(-c3cc(CC(C)(C)C)on3)c2C2CC2)c(Cl)c1 [Example E-75] | < 3 µM | < 3 µM | –
CC(C)(C)Cc1cc(-c2noc([C@@H](CCC(=O)O)CC(=O)Nc3ccc(Cl)cc3F)c2C2CC2)no1 [Example E-76] | < 3 µM | < 3 µM | –
CC(C)(C)C(F)(F)c1cc(-c2onc([C@@H](CCC(=O)O)CC(=O)Nc3ccc(Cl)cc3F)c2C2CC2)no1 [Example E-77] | – | – | EC50 (human RORγ; read-out: LUC EC50 hRORg): < 3 µM; EC50 (mouse RORγ; read-out: LUC EC50 mRORg): < 3 µM
CC(C)(C)Cc1cc(-c2onc([C@@H](CCC(=O)O)CC(=O)Nc3ccc(Cl)cc3Cl)c2C2CC2)no1 [Example E-78] | – | – | EC50 (human RORγ; read-out: LUC EC50 hRORg): < 3 µM; EC50 (mouse RORγ; read-out: LUC EC50 mRORg): < 3 µM
CC(C)(C)Cc1cc(-c2onc([C@H](CCC(=O)O)CC(=O)Nc3ccc(Cl)cc3Cl)c2C2CC2)no1 [Example E-79] | – | – | EC50 (human RORγ; read-out: LUC EC50 hRORg): < 3 µM; EC50 (mouse RORγ; read-out: LUC EC50 mRORg): < 3 µM
CC(C)(C)C(F)(F)c1cc(-c2onc([C@H](CCC(=O)O)CC(=O)Nc3ccc(Cl)cc3F)c2C2CC2)no1 [Example E-80] | – | – | EC50 (human RORγ; read-out: LUC EC50 hRORg): < 3 µM; EC50 (mouse RORγ; read-out: LUC EC50 mRORg): < 3 µM
CCn1c(CCC(=O)Nc2cccc3ccccc23)nnc1C1Cc2ccccc2C1 [Example F-1] | < 3 µM | < 3 µM | –
CCn1c(C2Cc3ccccc3C2)nnc1[C@H](C)CC(=O)Nc1cccc2ccccc12 [Example F-2] | < 3 µM | < 3 µM | –
CCn1c(CCC(=O)Nc2cccc(Cl)c2C)nnc1C1Cc2ccccc2C1 [Example F-3] | > 3 µM | < 3 µM | –
O=C(CCc1nnc(C2Cc3ccccc3C2)n1C1CC1)Nc1cccc2ccccc12 [Example F-4] | < 3 µM | < 3 µM | –
CCCn1c(CCC(=O)Nc2cccc3ccccc23)nnc1C1Cc2ccccc2C1 [Example F-5] | > 3 µM | > 3 µM | –
CC(C)n1c(CCC(=O)Nc2cccc3ccccc23)nnc1C1Cc2ccccc2C1 [Example F-6] | > 3 µM | > 3 µM | –
CCn1c(CCC(=O)Nc2cccc3c2CCCC3)nnc1C1Cc2ccccc2C1 [Example F-7] | > 3 µM | < 3 µM | –
Cn1c(CCC(=O)Nc2cccc3ccccc23)nnc1C1Cc2ccccc2C1 [Example F-8] | > 3 µM | < 3 µM | –
O=C(CCc1nnc(C2Cc3ccccc3C2)[nH]1)Nc1cccc2ccccc12 [Example F-9] | > 3 µM | > 3 µM | –
CCn1c(CCC(=O)NC2CCCc3ccccc32)nnc1C1Cc2ccccc2C1 (centres unmarked) [Example F-10] | – | – | EC50 (human RORγ; LUC EC50 (μM) hRORg): > 3 µM; EC50 (mouse RORγ; LUC EC50 (μM) mRORg): > 3 µM
CC(C)Cn1c(CCC(=O)Nc2cccc3ccccc23)nnc1C1Cc2ccccc2C1 [Example F-11] | – | – | EC50 (human RORγ; LUC EC50 (μM) hRORg): > 3 µM; EC50 (mouse RORγ; LUC EC50 (μM) mRORg): > 3 µM

Reference: US20160137639A1, “TRIAZOLE-ISOXAZOLE COMPOUND AND MEDICAL USE THEREOF” (JAPAN TOBACCO INC., priority 2012, published 2016)
